Activity data for one compound are collected here from ChEMBL document CHEMBL3044624, “Cycloate, an inhibitor of fatty acid elongase, modulates the metabolism of very-long-side-chain alkylresorcinols in rye seedlings” (Pest Manag Sci, 2009).

For series [1], the system named is Secale cereale. Briefly: Change in alkylresorcinol homologue composition in dry shoots of etiolated Secale cereale (rye) seedlings grown from compound-treated seeds at 22 +/-2 degC assessed as C15:0 content at 46 uM by GC/EI-MS analysis (reference value: 0.60 mg/kg dry weight). Type of series: functional.
The test system of series [2] is Secale cereale. Kind of series: Change in alkylresorcinol homologue composition in dry shoots of etiolated Secale cereale (rye) seedlings grown from compound-treated seeds at 15 +/-2 degC assessed as C15:0 content at 46 uM by GC/EI-MS analysis (reference value: 0.43 mg/kg dry weight). The class given is functional.
The test system of series [3] is Secale cereale. Briefly: Toxicity against etiolated Secale cereale (rye) seedlings assessed as dry biomass of seedling grown at 22 +/-2 degC at 46 uM measured at 5 days after compound-treated seed germination (reference value: 2.52 +/-0.05 g). The class given is organism-based. Conditions: in vivo, 120 h.
Series [4] concerns Secale cereale. Kind of series: Change in alkylresorcinol homologue composition in dry shoots of etiolated Secale cereale (rye) seedlings grown from compound-treated seeds at 22 +/-2 degC assessed as C23:1 content at 46 uM by GC/EI-MS analysis (reference value: 0.04 mg/kg dry weight). The class given is functional.
Series [5] has as its system Secale cereale. Briefly: Toxicity against etiolated Secale cereale (rye) seedlings assessed as fresh biomass of seedling grown at 22 +/-2 degC at 46 uM measured at 5 days after compound-treated seed germination (reference value: 21.43 +/-0.35 g). Type of series: organism-based. The settings on record: in vivo, 120 h.
For series [6], the system named is Secale cereale. Briefly: Change in alkylresorcinol homologue composition in dry shoots of green Secale cereale (rye) seedlings grown from compound-treated seeds at 29 +/-2 degC assessed as C15:0 content at 46 uM by GC/EI-MS analysis (reference value: 0.11 mg/kg dry weight). The class given is functional.
Series [7] deals with Secale cereale. Briefly: Change in alkylresorcinol content in dry shoots of etiolated Secale cereale (rye) seedlings grown from compound-treated seeds at 29 +/-2 degC at 46 uM by thin layer chromatography (reference value: 3.03 +/-0.02 mg/kg dry weight). Type of series: functional.
Series [8] has as its system Secale cereale. Kind of series: Change in alkylresorcinol homologue composition in dry shoots of green Secale cereale (rye) seedlings grown from compound-treated seeds at 22 +/-2 degC assessed as C17:0 content at 46 uM by GC/EI-MS analysis (reference value: 0.93 mg/kg dry weight). Type of series: functional.
Series [9] relates to Secale cereale. Kind of series: Change in alkylresorcinol homologue composition in dry shoots of green Secale cereale (rye) seedlings grown from compound-treated seeds at 22 +/-2 degC assessed as C21:0 content at 46 uM by GC/EI-MS analysis (reference value: 0.23 mg/kg dry weight). The class given is functional.
Series [10] concerns Secale cereale. Briefly: Change in alkylresorcinol homologue composition in dry shoots of etiolated Secale cereale (rye) seedlings grown from compound-treated seeds at 22 +/-2 degC assessed as C19:0 content at 46 uM by GC/EI-MS analysis (reference value: 1.83 mg/kg dry weight). The class given is functional.
Series [11] deals with Secale cereale. Briefly: Change in alkylresorcinol homologue composition in dry shoots of green Secale cereale (rye) seedlings grown from compound-treated seeds at 22 +/-2 degC assessed as C19:1 content at 46 uM by GC/EI-MS analysis (reference value: 0.20 mg/kg dry weight). Type of series: functional.
Series [12] deals with Secale cereale. Kind of series: Change in alkylresorcinol homologue composition in dry shoots of green Secale cereale (rye) seedlings grown from compound-treated seeds at 22 +/-2 degC assessed as C17:1 content at 46 uM by GC/EI-MS analysis (reference value: 0.21 mg/kg dry weight). The class given is functional.
Series [13] deals with Secale cereale. Kind of series: Change in alkylresorcinol homologue composition in dry shoots of etiolated Secale cereale (rye) seedlings grown from compound-treated seeds at 29 +/-2 degC assessed as C25:0 content at 46 uM by GC/EI-MS analysis (reference value: 0.06 mg/kg dry weight). Type of series: functional.
The subject of series [14] is Secale cereale. Briefly: Toxicity against green Secale cereale (rye) seedlings assessed as fresh biomass of seedling grown at 29 +/-2 degC at 46 uM measured at 5 days after compound-treated seed germination (reference value: 16.33 +/-0.24 g). The class given is organism-based. The settings on record: in vivo, 120 h.
For series [15], the system named is Secale cereale. Kind of series: Change in alkylresorcinol homologue composition in dry shoots of green Secale cereale (rye) seedlings grown from compound-treated seeds at 29 +/-2 degC assessed as C25:0 content at 46 uM by GC/EI-MS analysis (reference value: 0.03 mg/kg dry weight). Type of series: functional.
The subject of series [16] is Secale cereale. Kind of series: Change in alkylresorcinol homologue composition in dry shoots of etiolated Secale cereale (rye) seedlings grown from compound-treated seeds at 29 +/-2 degC assessed as C21:1 content at 46 uM by GC/EI-MS analysis (reference value: 0.04 mg/kg dry weight). The class given is functional.
For series [17], the system named is Secale cereale. Briefly: Change in alkylresorcinol homologue composition in dry shoots of green Secale cereale (rye) seedlings grown from compound-treated seeds at 29 +/-2 degC assessed as C19:1 content at 46 uM by GC/EI-MS analysis (Rvb =0.17 mg/kg dry weight). The class given is functional.
The subject of series [18] is Secale cereale. Kind of series: Toxicity against etiolated Secale cereale (rye) seedlings assessed as dry biomass of seedling grown at 15 +/-2 degC at 46 uM measured at 5 days after compound-treated seed germination (reference value: 1.14 +/-0.01 g). The class given is organism-based. Conditions: in vivo, 120 h.
The subject of series [19] is Secale cereale. Kind of series: Change in alkylresorcinol homologue composition in dry shoots of green Secale cereale (rye) seedlings grown from compound-treated seeds at 15 +/-2 degC assessed as C19:1 content at 46 uM by GC/EI-MS analysis (reference value: 0.23 mg/kg dry weight). The class given is functional.
Series [20] deals with Secale cereale. Kind of series: Toxicity against green Secale cereale (rye) seedlings assessed as dry biomass of seedling grown at 22 +/-2 degC at 46 uM measured at 5 days after compound-treated seed germination (reference value: 3.28 +/-0.02 g). The class given is organism-based. The settings on record: in vivo, 120 h.
The test system of series [21] is Secale cereale. Kind of series: Change in alkylresorcinol homologue composition in dry shoots of etiolated Secale cereale (rye) seedlings grown from compound-treated seeds at 22 +/-2 degC assessed as C25:0 content at 46 uM by GC/EI-MS analysis (reference value: 0.08 mg/kg dry weight). Type of series: functional.
Series [22] has as its system Secale cereale. Briefly: Change in alkylresorcinol content in dry shoots of green Secale cereale (rye) seedlings grown from compound-treated seeds at 29 +/-2 degC at 46 uM by thin layer chromatography (reference value: 1.94 +/-0.02 mg/kg dry weight). Type of series: functional.
Series [23] has as its system Secale cereale. Briefly: Change in alkylresorcinol homologue composition in dry shoots of green Secale cereale (rye) seedlings grown from compound-treated seeds at 15 +/-2 degC assessed as C21:0 content at 46 uM by GC/EI-MS analysis (reference value: 0.41 mg/kg dry weight). Type of series: functional.

For the compound `CCSC(=O)N(CC)C1CCCCC1` [CYCLOATE], the Activity came to 0.1 mg/kg in series [1]; 1.01 mg/kg in series [2]; 1.5 g in series [3]; 0.03 mg/kg in series [4]; 6.92 g in [5]; 0.53 mg/kg in series [6]. The Activity in series [7] was found to be 14.34 mg/kg; in series [8], 1.32 mg/kg; in series [9], 0.05 mg/kg; in series [10], 0.7 mg/kg; in series [11], 0.36 mg/kg; in [12] it was 0.13 mg/kg. Also, the Activity in series [13] was determined as 0.23 mg/kg; in series [14], 7.02 g; in series [15] it was 0.2 mg/kg; in series [16], 0.33 mg/kg; in series [17], 1.09 mg/kg; in series [18] it was 0.92 g. Also, the Activity in [19] was 0.37 mg/kg; in series [20], 2.03 g; in series [21] it was 0.06 mg/kg; in series [22], 13.96 mg/kg; in series [23], 0.55 mg/kg.
